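Method: 48-hour compound exposure of cells in 96-well plates, five concentrations, linear interpolation of endpoints. TGI is the concentration that stops growth completely.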
Key:
Assay in all cases: inhibition of tumour cell growth, NCI panel, 48 h
786-0 renal = tested on: 786-0 renal
A498 renal = tested on: A498 renal
A549 NSCLC = tested on: A549 NSCLC
ACHN renal = tested on: ACHN renal
CAKI-1 renal = tested on: CAKI-1 renal
CCRF-CEM leukemia = tested on: CCRF-CEM leukemia
COLO 205 colon = tested on: COLO 205 colon
DU-145 prostate = tested on: DU-145 prostate
EKVX NSCLC = tested on: EKVX NSCLC
HCC-2998 colon = tested on: HCC-2998 colon
HCT-116 colon = tested on: HCT-116 colon
HCT-15 colon = tested on: HCT-15 colon
HL-60(TB) leukemia = tested on: HL-60(TB) leukemia
HOP-62 NSCLC = tested on: HOP-62 NSCLC
HOP-92 NSCLC = tested on: HOP-92 NSCLC
HS 578T breast = tested on: HS 578T breast
HT29 colon = tested on: HT29 colon
IGROV1 ovarian = tested on: IGROV1 ovarian
K-562 leukemia = tested on: K-562 leukemia
KM12 colon = tested on: KM12 colon
LOX IMVI melanoma = tested on: LOX IMVI melanoma
M14 melanoma = tested on: M14 melanoma
MCF7 breast = tested on: MCF7 breast
MDA-MB-231 breast = tested on: MDA-MB-231 breast
MDA-MB-435 = tested on: MDA-MB-435
MDA-N = tested on: MDA-N
MOLT-4 leukemia = tested on: MOLT-4 leukemia
NCI-H226 lung = tested on: NCI-H226 lung
NCI-H23 lung = tested on: NCI-H23 lung
NCI-H460 lung = tested on: NCI-H460 lung
NCI-H522 lung = tested on: NCI-H522 lung
NCI/ADR-RES ovarian = tested on: NCI/ADR-RES ovarian
OVCAR-3 ovarian = tested on: OVCAR-3 ovarian
OVCAR-5 ovarian = tested on: OVCAR-5 ovarian
OVCAR-8 ovarian = tested on: OVCAR-8 ovarian
PC-3 prostate = tested on: PC-3 prostate
RPMI-8226 leukemia = tested on: RPMI-8226 leukemia
RXF 393 renal = tested on: RXF 393 renal
SF-268 CNS = tested on: SF-268 CNS
SF-295 CNS = tested on: SF-295 CNS
SF-539 CNS = tested on: SF-539 CNS
SK-MEL-28 melanoma = tested on: SK-MEL-28 melanoma
SK-MEL-5 melanoma = tested on: SK-MEL-5 melanoma
SK-OV-3 ovarian = tested on: SK-OV-3 ovarian
SN12C renal = tested on: SN12C renal
SNB-75 CNS = tested on: SNB-75 CNS
SR leukemia = tested on: SR leukemia
SW-620 colon = tested on: SW-620 colon
T-47D breast = tested on: T-47D breast
TK-10 renal = tested on: TK-10 renal
U251 CNS = tested on: U251 CNS
UACC-257 melanoma = tested on: UACC-257 melanoma
UACC-62 melanoma = tested on: UACC-62 melanoma
UO-31 renal = tested on: UO-31 renal
MALME-3M melanoma = tested on: MALME-3M melanoma
OVCAR-4 ovarian = tested on: OVCAR-4 ovarian
SK-MEL-2 melanoma = tested on: SK-MEL-2 melanoma
SNB-19 CNS = tested on: SNB-19 CNS

Work on O=[N+]([O-])/C=C1\COCc2cc3c(cc21)OCO3 yielded a TGI (786-0 renal) of 44.3 µM, a TGI (A498 renal) of 42 µM and a TGI (A549 NSCLC) of 39.8 µM. The TGI (ACHN renal) was 43.3 µM, the TGI (CAKI-1 renal) was 25.7 µM and the TGI (CCRF-CEM leukemia) was 39.1 µM. The TGI (COLO 205 colon) was 42 µM, the TGI (DU-145 prostate) was 37.4 µM and the TGI (EKVX NSCLC) was 74.7 µM. For the same molecule, the TGI (HCC-2998 colon) was 32.9 µM, the TGI (HCT-116 colon) was 39.6 µM and the TGI (HCT-15 colon) was 36.2 µM. For the same molecule, the TGI (HL-60(TB) leukemia) was 57.4 µM, the TGI (HOP-62 NSCLC) was over 100 µM and the TGI (HOP-92 NSCLC) was over 100 µM. For the same molecule, the TGI (HS 578T breast) was 80.7 µM, the TGI (HT29 colon) was 67.2 µM and the TGI (IGROV1 ovarian) was over 100 µM. For the same molecule, the TGI (K-562 leukemia) was over 100 µM, the TGI (KM12 colon) was 28.4 µM and the TGI (LOX IMVI melanoma) was 71.5 µM. The TGI (M14 melanoma) was 26.9 µM, the TGI (MCF7 breast) was 35.8 µM and the TGI (MDA-MB-231 breast) was 29.8 µM. The TGI (MDA-MB-435) was 28.2 µM, the TGI (MDA-N) was 40.4 µM and the TGI (MOLT-4 leukemia) was over 100 µM. The TGI (NCI-H226 lung) was 57.6 µM, the TGI (NCI-H23 lung) was 27.1 µM and the TGI (NCI-H460 lung) was 93.8 µM. For the same molecule, the TGI (NCI-H522 lung) was 40.2 µM, the TGI (NCI/ADR-RES ovarian) was 43.4 µM and the TGI (OVCAR-3 ovarian) was 35.9 µM. The TGI (OVCAR-5 ovarian) was 43.4 µM, the TGI (OVCAR-8 ovarian) was 84.4 µM and the TGI (PC-3 prostate) was 25.6 µM. It also gave a TGI (RPMI-8226 leukemia) of 68.5 µM, a TGI (RXF 393 renal) of 38.9 µM and a TGI (SF-268 CNS) of 67 µM. The TGI (SF-295 CNS) was over 100 µM, the TGI (SF-539 CNS) was 52.4 µM and the TGI (SK-MEL-28 melanoma) was 34.2 µM. The TGI (SK-MEL-5 melanoma) was 39.9 µM, the TGI (SK-OV-3 ovarian) was over 100 µM and the TGI (SN12C renal) was 47.2 µM. The TGI (SNB-75 CNS) was 38.9 µM, the TGI (SR leukemia) was 61.4 µM and the TGI (SW-620 colon) was 47.4 µM. The TGI (T-47D breast) was 46 µM, the TGI (TK-10 renal) was 50 µM and the TGI (U251 CNS) was 36.5 µM. The TGI (UACC-257 melanoma) was 40.9 µM, the TGI (UACC-62 melanoma) was 51.8 µM and the TGI (UO-31 renal) was 34.7 µM.

Molecule CC1(C)CS(=O)(=O)CC(C)(C)C(=N/N)/C1=N\N has a TGI (786-0 renal) of over 100 µM, a TGI (A498 renal) of over 100 µM and a TGI (A549 NSCLC) of over 100 µM. For the same molecule, the TGI (ACHN renal) was over 100 µM, the TGI (CAKI-1 renal) was over 100 µM and the TGI (COLO 205 colon) was over 100 µM. The TGI (DU-145 prostate) was over 100 µM, the TGI (EKVX NSCLC) was over 100 µM and the TGI (HCC-2998 colon) was over 100 µM. The TGI (HCT-116 colon) was over 100 µM, the TGI (HCT-15 colon) was over 100 µM and the TGI (HL-60(TB) leukemia) was over 100 µM. For the same molecule, the TGI (HOP-62 NSCLC) was over 100 µM, the TGI (HOP-92 NSCLC) was over 100 µM and the TGI (HS 578T breast) was over 100 µM. The TGI (HT29 colon) was over 100 µM, the TGI (IGROV1 ovarian) was over 100 µM and the TGI (K-562 leukemia) was over 100 µM. For the same molecule, the TGI (KM12 colon) was over 100 µM, the TGI (LOX IMVI melanoma) was over 100 µM and the TGI (M14 melanoma) was over 100 µM. For the same molecule, the TGI (MALME-3M melanoma) was over 100 µM, the TGI (MCF7 breast) was over 100 µM and the TGI (MDA-MB-435) was over 100 µM. The TGI (MDA-N) was over 100 µM, the TGI (NCI-H23 lung) was over 100 µM and the TGI (NCI-H460 lung) was over 100 µM. The TGI (NCI-H522 lung) was over 100 µM, the TGI (NCI/ADR-RES ovarian) was over 100 µM and the TGI (OVCAR-3 ovarian) was over 100 µM. For the same molecule, the TGI (OVCAR-4 ovarian) was over 100 µM, the TGI (OVCAR-5 ovarian) was over 100 µM and the TGI (OVCAR-8 ovarian) was over 100 µM. For the same molecule, the TGI (PC-3 prostate) was over 100 µM, the TGI (SF-268 CNS) was over 100 µM and the TGI (SF-295 CNS) was over 100 µM. It also gave a TGI (SF-539 CNS) of over 100 µM, a TGI (SK-MEL-2 melanoma) of over 100 µM and a TGI (SK-MEL-28 melanoma) of over 100 µM. For the same molecule, the TGI (SK-MEL-5 melanoma) was over 100 µM, the TGI (SK-OV-3 ovarian) was over 100 µM and the TGI (SN12C renal) was over 100 µM. It also gave a TGI (SNB-19 CNS) of over 100 µM, a TGI (SNB-75 CNS) of over 100 µM and a TGI (SR leukemia) of over 100 µM. For the same molecule, the TGI (SW-620 colon) was over 100 µM, the TGI (T-47D breast) was over 100 µM and the TGI (TK-10 renal) was over 100 µM. For the same molecule, the TGI (U251 CNS) was over 100 µM, the TGI (UACC-257 melanoma) was over 100 µM and the TGI (UACC-62 melanoma) was over 100 µM.

Source: PubChem BioAssay (NCI)
